Values of other authors as cited in patent US12042557B2, “Rapid establishment and/or termination of substantial steady-state drug delivery” (Intarcia Therapeutics, Inc., priority 2009, dated 2024).
Where two headings read alike, the source gives them in different places.

Columns and labels:
[1] = tested on: subjects on metformin-only background treatment, type 2 diabetes mellitus
[2] = in vivo
[3] = Treatment F: oral 100 mg/day, subjects with baseline HbA1c less than 9.0
[4] = Treatment F: oral once a day 100 mg/day, metformin background, Bergenstal 2010

Compound	change of HbA1c for the study [1, 3] [%]	endpoint HbA1c % [1, 3] [%]	change of HbA1c for the study [1, 4] [%]	endpoint HbA1c % [1, 4] [%]	percentage of subjects who achieved an HbA1c of 7% or less [1, 4] [%]	half-life [2]
N[C@@H](CC(=O)N1CCn2c(nnc2C(F)(F)F)C1)Cc1cc(F)c(F)cc1F [sitagliptin, Sitagliptin]	−0.5	7.2	−0.9	7.6	31	
PYY: 36 amino acid residue peptide amide [peptide YY]						approximately 8 minutes
